In PMC5504036, “A tricyclic antidepressant, amoxapine, reduces amyloid-β generation through multiple serotonin receptor 6-mediated targets” (Scientific Reports, 2017):

Molecular target: T1, serotonin receptor 6 (HTR6) (Homo sapiens, UniProt P50406)
T1 construct: human HTR6 expressed by lentivirus in SK-N-SH cells
Assay: GloSensor cAMP assay (agonist) in SK-N-SH cells infected with HTR6 lentivirus
Assay type: cell-based

T1 sequence (P50406 whole entry): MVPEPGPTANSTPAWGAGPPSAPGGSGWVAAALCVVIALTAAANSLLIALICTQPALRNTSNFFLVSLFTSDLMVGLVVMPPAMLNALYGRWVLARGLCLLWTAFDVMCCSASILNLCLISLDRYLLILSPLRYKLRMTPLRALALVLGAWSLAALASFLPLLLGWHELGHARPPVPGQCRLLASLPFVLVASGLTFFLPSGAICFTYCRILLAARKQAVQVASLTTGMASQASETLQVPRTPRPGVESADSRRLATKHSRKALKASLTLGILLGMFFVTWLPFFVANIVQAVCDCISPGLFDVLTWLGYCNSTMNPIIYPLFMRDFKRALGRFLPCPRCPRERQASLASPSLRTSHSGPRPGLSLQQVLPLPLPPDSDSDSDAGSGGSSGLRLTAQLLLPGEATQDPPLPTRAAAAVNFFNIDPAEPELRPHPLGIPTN

`Cc1[nH]c2ccc(Cl)cc2c1CCN(C)C` [ST1936] was tested, and the EC50 was 1.7 nM.
